Measurements taken from patent EP3643303A1, “COMPOUNDS FOR USE IN THE TREATMENT OR PREVENTION OF FIBROTIC DISEASES; PHARMACEUTICAL, COSMETIC COMPOSITIONS AND USES THEREOF” (InnovativeHealth Group SL, priority 2018, dated 2020).

How the values were obtained:
human CB1 = biological target: T1, human CB1 (Homo sapiens, UniProt P21554); test: CB1 antagonism assay (CRE-Luc reporter) in HEK-293T-CB1 cells stimulated with WIN-55,212-2; format: cell-based; details: 15 min preincubation, then WIN-55,212-2 for 6 h; CRE-Luc luciferase; Figure 1
T1 construct: HEK-293T-CB1 (stably transfected with CB1 cDNA); expressed in transfected cells; host or cells: HEK-293T
T1 sequence (P21554 whole entry): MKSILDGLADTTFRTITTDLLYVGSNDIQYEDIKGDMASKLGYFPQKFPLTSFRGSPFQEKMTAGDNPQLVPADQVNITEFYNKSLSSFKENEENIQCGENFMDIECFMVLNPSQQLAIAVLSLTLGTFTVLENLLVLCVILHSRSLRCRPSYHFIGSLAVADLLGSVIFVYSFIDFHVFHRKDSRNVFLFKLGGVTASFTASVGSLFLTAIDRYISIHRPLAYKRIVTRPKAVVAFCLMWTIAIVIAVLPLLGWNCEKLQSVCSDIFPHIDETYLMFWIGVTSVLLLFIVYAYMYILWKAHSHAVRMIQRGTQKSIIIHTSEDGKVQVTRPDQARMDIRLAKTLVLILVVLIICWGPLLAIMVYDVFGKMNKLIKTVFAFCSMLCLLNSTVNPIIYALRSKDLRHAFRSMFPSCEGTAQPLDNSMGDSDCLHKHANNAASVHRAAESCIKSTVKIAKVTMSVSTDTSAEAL
Description: To investigate the biological activities of the CBD enantiomers on CB1 and TRPV1 receptors were performed functional assays in both HEK-293T-CB1 and HEK-293T-TRPV1 cells, which overexpress human CB1 and TRPV-1 receptors respectively. HEK-293T-CB1 (stably transfected with CB1 cDNA) were maintained in supplemented DMEM medium containing 10% FBS and 1% antibiotics penicillin/streptomycin (DMEM complete medium) at 37°C in a humidified atmosphere of 5% CO2. The cells were incubated in 24-well plates (1x10^5 cell/ml) and transiently transfected with 0,1 µg/ml of the plasmid CRE-Luc that contains six consensus cAMP responsive elements (CRE) linked to firefly luciferase. Transient transfections were performed with Rotifect (Carl Roth GmbH, Karlsruhe, Germany) according to the manufacturer's instructions and harvested 24 h after transfection. For CB1 antagonistic activity the transfected cells were incubated with increasing concentrations of the CBD enantiomers for 15 min and then stimulated with WIN-55, 212-2 (CB1 agonist), during 6 h and then luciferase activity measured in the cell lysates. […]

human COL1A2 promoter = test: Col1A2 gene transcriptional activity (luciferase) in NIH-3T3-Col1A2-luc cells stimulated with TGFβ; format: cell-based, mouse; details: TGFβ 10 ng/ml, 24 h; Figure 3
Text: The effect of CBD isomers on collagen transcriptional regulation in NIH-3T3 cells stably expressing the Col1A2-luc plasmid, which encodes the gene promoter of the pro-alpha2 chain component of type I collagen fused to the luciferase gene, was studied. NIH-3T3-COL1A2-Luc fibroblast cells were generated by stable transfection of the COL-1A2-Luc plasmid, containing sequences from -353 to +58 bp of the human COL1A2 promoter fused to the luciferase reporter gene, and pPURO plasmid. Cells are cultivated at a density of 1 x 10^4 cells/ml for 24 h at 37°C. Then the cells were treated with the CBD isomers at several concentrations and TGFβ (10 ng/ml) for 24 h. Then, the cells are washed with PBS and lysed in 50 µl lysis buffer containing 25 mM Tris-phosphate (pH 7.8), 8 mM MgCl2, 1 mM DTT, 1% Triton X-100, and 7% glycerol during 15 min. Luciferase activity and protein concentration is measured in the cell lysates, to calculate the RLU/µg of protein and the results expressed as the percentage of induction considering the value obtained with TGFβ as 100% activation. The protein concentration in the cell extracts was measured by the Bradford method (BioRad).

[1] = test system: normal human dermal fibroblasts (NHDFs); test: Collagen secretion (Sircol Soluble Collagen Assay) in TGFβ-stimulated NHDFs; format: cell-based; details: 1 h pre-treatment, TGFβ 24 h; Figure 4
Description: Next, NHDFs were used to correlate the effect of both isomers of CBD on Col1A2 transcriptional activity with collagen secretion. NHDFs were seeded in 24 well plates (5x10^4 cells/well), pre-treated with either (-)CBD or (+)CBD for 1 h and stimulated with TGFβ for the following 24 h. Collagen secretion was studied by collecting culture medium and measuring soluble collagen using the Sircol Soluble Collagen Assay (Biocolor, County Antrim, UK) following manufacturer's instructions.

Nrf2 pathway = test: Nrf2 activation (ARE-Luc luciferase) in HaCaT-ARE-Luc keratinocytes; format: cell-based; details: 6 h, increasing concentrations; Figure 7
Text: Nrf2 is a transcription factor which, upon activation in response to inflammatory or oxidative stress, activates a robust anti-inflammatory and cytoprotective transcription program. Therefore, Nrf2 activation may represent a novel approach for the treatment of scleroderma and other fibrotic diseases. Thus, the effect of CBD isomers on the activation of the Nrf2 pathway in the keratinocyte cell line HaCaT-ARE-Luc, containing the Nqo1 Antioxidant Response Element (ARE)-Luc reporter plasmid stably transfected, was explored. ARE is activated by all members of the CNC family of factors (Nrf1, Nrf2, Nrf3 and p45 NF-E2). The cells are cultivated in 96-well plates at the concentration of 2x10^4 cells/well in a CO2 incubator at 37°C. For induction of Nrf2 activation the cells were treated with increasing concentrations of the CBD isomers for 6 h. As a positive control the cells were treated with 0,01 mM of Tert-butyl-hydroperoxide (TBHP) for 6 h. […] Luciferase activity was measured using TriStar^2 Berthold/LB942 multimode reader (Berthold Technologies) following the instructions of the luciferase assay kit (Promega, Madison, WI, USA). The background obtained with the lysis buffer was subtracted in each experimental value, and the specific transactivation expressed as fold induction over basal levels (untreated cells).

anandamide hydrolysis = details: Bisogno et al. 2001; cited from earlier work
TRPV-1 = TRPV-1 (Homo sapiens, UniProt Q8NER1); details: Bisogno et al. 2001; cited from earlier work
TRPV-1, sequence (Q8NER1 whole entry, species assumed): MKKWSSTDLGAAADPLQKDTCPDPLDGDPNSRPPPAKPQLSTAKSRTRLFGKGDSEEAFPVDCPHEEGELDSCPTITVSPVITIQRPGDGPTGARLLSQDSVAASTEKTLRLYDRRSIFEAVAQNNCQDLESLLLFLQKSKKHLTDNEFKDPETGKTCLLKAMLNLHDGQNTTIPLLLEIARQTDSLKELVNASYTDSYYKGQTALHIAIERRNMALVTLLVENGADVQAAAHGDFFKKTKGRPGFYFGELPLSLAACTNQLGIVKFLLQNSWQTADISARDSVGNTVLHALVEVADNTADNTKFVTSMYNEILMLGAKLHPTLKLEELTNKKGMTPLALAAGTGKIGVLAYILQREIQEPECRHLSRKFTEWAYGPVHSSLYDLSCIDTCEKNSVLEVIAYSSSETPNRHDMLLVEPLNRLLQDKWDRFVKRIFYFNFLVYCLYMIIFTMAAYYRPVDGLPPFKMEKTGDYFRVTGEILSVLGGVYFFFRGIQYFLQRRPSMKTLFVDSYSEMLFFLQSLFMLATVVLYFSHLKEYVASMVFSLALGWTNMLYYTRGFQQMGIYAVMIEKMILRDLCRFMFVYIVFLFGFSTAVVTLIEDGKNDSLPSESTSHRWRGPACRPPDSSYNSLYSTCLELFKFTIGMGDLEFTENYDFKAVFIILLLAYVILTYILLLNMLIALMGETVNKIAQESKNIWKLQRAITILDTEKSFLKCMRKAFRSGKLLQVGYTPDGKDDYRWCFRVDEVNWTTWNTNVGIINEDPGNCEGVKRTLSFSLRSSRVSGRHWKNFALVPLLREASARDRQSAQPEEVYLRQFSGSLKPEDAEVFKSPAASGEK

Compound | CB1 antagonistic activity (human CB1) | collagen promoter transcriptional activity (human COL1A2 promoter) | TGFβ-induced collagen release and deposition [1] | activation of the Nrf2 pathway (Nrf2 pathway) | anandamide hydrolysis (anandamide hydrolysis) | activity of the TRPV-1 (TRPV-1)
C=C(C)[C@H]1CCC(C)=C[C@@H]1c1c(O)cc(CCCCC)cc1O [(+)CBD, (+)Cannabidiol] | clear CB1 antagonistic activity | significantly reduced | significantly inhibited | able to activate the Nrf2 pathway in keratinocytes and in a concentration-dependent manner | inhibited | modulated
C=C(C)[C@@H]1CCC(C)=C[C@H]1c1c(O)cc(CCCCC)cc1O [(-)CBD, 2-[(1R,6R)-3-methyl-6-prop-1-en-2-ylcyclohex-2-en-1-yl]-5-pentylbenzene-1,3-diol] | clear CB1 antagonistic activity | significantly reduced | significantly inhibited | able to activate the Nrf2 pathway in keratinocytes and in a concentration-dependent manner | inhibited | modulated
